Reference: US8765940B2 (priority 2009, dated 2014)

Molecular target: PI3Kδ (Homo sapiens (Human), UniProt O00329)
Format: biochemical
Settings: PI3Kδ Alphascreen assay
Method: A PI3K Alphascreen® assay (PerkinElmer, Waltham, Mass.) was used to measure the activity of a panel of four phosphoinositide 3-kinases: PI3Kα, PI3Kβ, PI3Kγ, and PI3Kδ. Enzyme reaction buffer was prepared using sterile water (Baxter, Deerfield, Ill.) and 50 mM Tris HCl pH 7, 14 mM MgCl2, 2 mM sodium cholate, and 100 mM NaCl. 2 mM DTT was added fresh the day of the experiment. The Alphascreen buffer was made using sterile water and 10 mM Tris HCl pH 7.5, 150 mM NaCl, 0.10% Tween 20, and 30 mM EDTA. 1 mM DTT was added fresh the day of the experiment. Compound source plates used for this assay were 384-well Greiner clear polypropylene plates containing test compounds at 5 mM and diluted 1:2 over 22 concentrations. Columns 23 and 24 contained only DMSO as these wells comprised the positive and negative controls, respectively. Source plates were replicated by transferring 0.5 uL per well into 384-well Optiplates (PerkinElmer, Waltham, Mass.).
Each PI3K isoform was diluted in enzyme reaction buffer to 2× working stocks. PI3Kα was diluted to 1.6 nM, PI3Kβ was diluted to 0.8 nM, PI3Kγ was diluted to 15 nM, and PI3Kδ was diluted to 1.6 nM. PI(4,5)P2 (Echelon Biosciences, Salt Lake City, Utah) was diluted to 10 μM and ATP was diluted to 20 μM. This 2× stock was used in the assays for PI3Kα and PI3Kβ. For assay of PI3Kγ and PI3Kδ, PI(4,5)P2 was diluted to 10 μM and ATP was diluted to 8 μM to prepare a similar 2× working stock. Alphascreen reaction solutions were made using beads from the anti-GST Alphascreen kit (PerkinElmer, Waltham, Mass.). Two 4× working stocks of the Alphascreen reagents were made in Alphascreen reaction buffer. In one stock, biotinylated-IP4 (Echelon Biosciences, Salt Lake City, Utah) was diluted to 40 nM and streptavadin-donor beads were diluted to 80 μg/mL. In the second stock, PIP3-binding protein (Echelon Biosciences, Salt Lake City, Utah) was diluted to 40 nM and anti-GST-acceptor beads were diluted to 80 μg/mL.
Using a 384-well Multidrop (Titertek, Huntsville, Ala.), 10 μL/well of 2× enzyme stock was added to columns 1-24 of the assay plates for each isoform. 10 μL/well of the appropriate substrate 2× stock (containing 20 μM ATP for the PI3Kα and β assays and containing 8 μM ATP for the PI3Kγ and δ assays) was then added to Columns 1-24 of all plates. Plates were then incubated at room temperature for 20 minutes. In the dark, 10 μL/well of the donor bead solution was added to columns 1-24 of the plates to quench the enzyme reaction. The plates were incubated at room temperature for 30 minutes. Still in the dark, 10 μL/well of the acceptor bead solution was added to columns 1-24 of the plates. The plates were then incubated in the dark for 1.5 hours. The plates were read on an Envision multimode Plate Reader (PerkinElmer, Waltham, Mass.) using a 680 nm excitation filter and a 520-620 nm emission filter.

PI3Kδ, sequence (O00329 whole entry): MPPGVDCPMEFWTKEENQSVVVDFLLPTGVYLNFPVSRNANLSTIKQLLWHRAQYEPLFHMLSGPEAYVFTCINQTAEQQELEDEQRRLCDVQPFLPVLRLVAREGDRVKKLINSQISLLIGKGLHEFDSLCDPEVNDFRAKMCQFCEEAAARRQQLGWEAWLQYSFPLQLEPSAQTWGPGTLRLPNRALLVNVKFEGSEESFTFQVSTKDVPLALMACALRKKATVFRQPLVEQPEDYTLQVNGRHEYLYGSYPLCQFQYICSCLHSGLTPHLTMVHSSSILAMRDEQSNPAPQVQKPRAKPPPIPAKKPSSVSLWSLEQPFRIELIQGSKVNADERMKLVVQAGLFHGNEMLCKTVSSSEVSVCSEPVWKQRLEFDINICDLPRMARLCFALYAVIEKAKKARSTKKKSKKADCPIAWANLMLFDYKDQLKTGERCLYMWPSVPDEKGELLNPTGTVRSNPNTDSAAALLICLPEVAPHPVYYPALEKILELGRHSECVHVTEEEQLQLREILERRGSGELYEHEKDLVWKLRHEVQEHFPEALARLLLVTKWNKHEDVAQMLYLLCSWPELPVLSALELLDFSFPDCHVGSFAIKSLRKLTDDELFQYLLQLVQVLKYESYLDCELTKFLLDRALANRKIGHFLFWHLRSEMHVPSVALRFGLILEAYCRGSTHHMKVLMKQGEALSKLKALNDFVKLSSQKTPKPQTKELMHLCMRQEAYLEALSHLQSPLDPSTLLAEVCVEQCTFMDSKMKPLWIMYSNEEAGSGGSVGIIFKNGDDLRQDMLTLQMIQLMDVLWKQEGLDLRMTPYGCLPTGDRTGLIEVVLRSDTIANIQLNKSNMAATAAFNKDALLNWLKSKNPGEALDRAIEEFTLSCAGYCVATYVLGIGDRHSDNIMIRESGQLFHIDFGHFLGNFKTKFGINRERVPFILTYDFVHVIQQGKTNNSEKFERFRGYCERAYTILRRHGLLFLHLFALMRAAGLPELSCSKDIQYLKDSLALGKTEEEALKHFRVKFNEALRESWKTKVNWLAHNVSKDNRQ
PI3Kδ, sequence (P27986 whole entry partner): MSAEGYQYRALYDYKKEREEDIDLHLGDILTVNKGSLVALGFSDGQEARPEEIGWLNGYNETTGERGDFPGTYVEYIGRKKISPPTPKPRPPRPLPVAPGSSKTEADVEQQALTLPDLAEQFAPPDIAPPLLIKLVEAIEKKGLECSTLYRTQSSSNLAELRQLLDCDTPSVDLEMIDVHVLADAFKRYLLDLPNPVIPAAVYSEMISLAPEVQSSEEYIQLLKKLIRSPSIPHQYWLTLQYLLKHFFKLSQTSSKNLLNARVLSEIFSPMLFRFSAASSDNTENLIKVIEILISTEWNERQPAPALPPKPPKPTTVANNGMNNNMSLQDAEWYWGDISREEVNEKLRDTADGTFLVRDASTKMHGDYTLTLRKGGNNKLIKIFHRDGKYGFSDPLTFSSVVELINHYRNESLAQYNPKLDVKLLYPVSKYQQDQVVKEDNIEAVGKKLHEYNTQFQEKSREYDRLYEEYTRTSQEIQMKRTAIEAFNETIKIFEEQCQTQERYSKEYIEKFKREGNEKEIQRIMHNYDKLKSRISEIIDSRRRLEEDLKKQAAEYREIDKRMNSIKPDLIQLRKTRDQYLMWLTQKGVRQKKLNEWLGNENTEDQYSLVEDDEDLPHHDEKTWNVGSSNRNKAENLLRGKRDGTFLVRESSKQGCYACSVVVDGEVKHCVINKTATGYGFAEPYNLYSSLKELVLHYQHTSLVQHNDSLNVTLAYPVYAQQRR

| Compound | Ki [µM] |
| --- | --- |
| COc1cc(N2CCOCC2)cc2c1ccn2-c1c(C)c(C)nc2ccc(Cl)cc12 [6-chloro-4-(4-methoxy-6-(4-morpholinyl)-1H-indol-1-yl)-2,3-dimethylquinoline] | 3.71 |
| Cc1c(-c2ccccn2)nc2cc(F)ccc2c1N1CC(C)(C)c2ccc(-c3nc(N)ncc3Cl)cc21 [5-chloro-4-(1-(7-fluoro-3-methyl-2-(2-pyridinyl)-4-quinolinyl)-3,3-dimethyl-2,3-dihydro-1H-indol-6-yl)-2-pyrimidinamine] | 1.43 |
| Cc1c(-c2cccc3ccccc23)nc2cc(F)cc(F)c2c1N1CC(C)(C)c2ncc(N3CCOCC3)cc21 [4-(3,3-dimethyl-6-(4-morpholinyl)-2,3-dihydro-1H-pyrrolo[3,2-b]pyridin-1-yl)-5,7-difluoro-3-methyl-2-(1-naphthalenyl)quinoline] | 0.23 |
| Cc1c(-c2ccccn2)nc2cc(F)ccc2c1N1CC(C)(C)c2ncc(-c3cn[nH]c3)cc21 [4-(3,3-dimethyl-6-(1H-pyrazol-4-yl)-2,3-dihydro-1H-pyrrolo[3,2-b]pyridin-1-yl)-7-fluoro-3-methyl-2-(2-pyridinyl)quinoline] | 0.0952 |
| CC1(C)CN(c2c3c(nc4ccc(Cl)cc24)C(C)(C)CC3)c2cc(N3CCOCC3)ccc21 [7-chloro-9-(3,3-dimethyl-6-(4-morpholinyl)-2,3-dihydro-1H-indol-1-yl)-3,3-dimethyl-2,3-dihydro-1H-cyclopenta[b]quinoline] | 0.111 |
| Cc1c(C2CC2)nc2ncccc2c1N1CC(C)(C)c2ncc(N3CCOCC3)cc21 [2-cyclopropyl-4-(3,3-dimethyl-6-(4-morpholinyl)-2,3-dihydro-1H-pyrrolo[3,2-b]pyridin-1-yl)-3-methyl-1,8-naphthyridine] | 0.032 |
| Cc1c(-c2ccccn2)nc2c(F)cccc2c1N1CC(C)(C)c2ccc(N3CCOCC3)cc21 [4-(3,3-dimethyl-6-(4-morpholinyl)-2,3-dihydro-1H-indol-1-yl)-8-fluoro-3-methyl-2-(2-pyridinyl)quinoline] | 0.0937 |
| Cc1c(-c2cncc(F)c2)nc2cc(F)cc(F)c2c1N1CC(C)(C)c2ncc(N3CCOCC3)cc21 [4-(3,3-dimethyl-6-(4-morpholinyl)-2,3-dihydro-1H-pyrrolo[3,2-b]pyridin-1-yl)-5,7-difluoro-2-(5-fluoro-3-pyridinyl)-3-methylquinoline] | 0.00521 |
| Cc1c(-c2cccc(O)n2)nc2cc(F)ccc2c1N1CC2(CCOCC2)c2ccc(N3CCOCC3)cc21 [6-(7-fluoro-3-methyl-4-(6-(4-morpholinyl)-2′,3′,5′,6′-tetrahydrospiro[indole-3,4′-pyran]-1(2H)-yl)-2-quinolinyl)-2-pyridinol] | 0.155 |

The remaining lines, values ahead:

| Ki [µM] | Compound |
| --- | --- |
| 4.11 | Cc1nc2ccc(Cl)cc2c(-n2ccc3c(O)cc(-c4cn[nH]c4)cc32)c1C [1-(6-chloro-2,3-dimethyl-4-quinolinyl)-6-(1H-pyrazol-4-yl)-1H-indol-4-ol] |
| 0.0078 | Cc1c(-c2ccccc2S(C)(=O)=O)nc2cc(F)ccc2c1N1CC(C)(C)c2ncc(N3CCOCC3)cc21 [4-(3,3-dimethyl-6-(4-morpholinyl)-2,3-dihydro-1H-pyrrolo[3,2-b]pyridin-1-yl)-7-fluoro-3-methyl-2-(2-(methylsulfonyl)phenyl)quinoline] |
| 0.0883 | Cc1c(/C=C/c2ccccc2)nc2cc(F)cc(F)c2c1N1CC(C)(C)c2ncc(N3CCOCC3)cc21 [4-(3,3-dimethyl-6-(4-morpholinyl)-2,3-dihydro-1H-pyrrolo[3,2-b]pyridin-1-yl)-5,7-difluoro-3-methyl-2-((E)-2-phenylethenyl)quinoline] |
| 0.00268 | Cc1c(Cc2cccc(C#N)c2)nc2cc(F)cc(F)c2c1N1CC(C)(C)c2ncc(N3CCOCC3)cc21 [3-((4-(3,3-dimethyl-6-(4-morpholinyl)-2,3-dihydro-1H-pyrrolo[3,2-b]pyridin-1-yl)-5,7-difluoro-3-methyl-2-quinolinyl)methyl)benzonitrile] |
